In US12502428B1, “Immunotherapeutic composition for prevention of obesity, nonalcoholic fatty liver disease and hypertriglyceridemia, and methods of use and preparation thereof” (Utopia Therapeutics Pvt Ltd., priority 2025, dated 2025):
Where no end group is shown, it is not given here.

Experiments:
high-fat fed mice model = test: Efficacy of the vaccine in high-fat fed mice model (diet induced obesity, DIO); type: in vivo, mice - Balb/c
Excerpt: This model is often referred to as diet induced obesity (DIO) model.
(§1) IAEC approval: IAEC approval obtained for conducting the study; test item name: UT-GT-001; batch number: G2467-145; date of manufacture: 9 Nov.
The dosage for mice extrapolated using standard guidelines.
Formulation was freshly made just before dosing. […] Immunization of peptide is along with Freund's adjuvant by proper mixing. […] Once the drop test passed (the emulsion drop floated on water as intact), the final formulation was administered to mice with the volume of 300 μl.
Immunization and blood collection. After the acclimatization period, body weights of mice were recorded.
At every blood collection, 12 hours fasting was maintained for animals. […] Blood samples were given to the diagnostic center for different blood parameter analysis.

high-fat fed rat model = test: Efficacy of the vaccine in high-fat fed rat model
Excerpt: Species details: species: rats (Wistar); justification: the rats (Wistar) are recognized by the international guidelines as the recommended test system and considerable historical data is available; source: good quality, healthy animals were procured from Hylasco Biotechnology India Pvt Ltd, (Reg. No. 1808/PO/RcBt/S/15/CPCSEA); animal age at the time of randomization: 07-08 weeks; animal weight at the time of randomization: males: 170±20 grams.
Husbandry and diet composition: number of animals: a total number of 6 animals (6M) per group; animal identification: individual cage tags; housing: animals were housed in stainless steel cages, one animal per cage; diet: pelleted rodent feed ad libitum; temperature: 30° C.; humidity: 30 to 70%; light: 12 hours light and 12 hours dark; water: RO purified water, ad libitum; cleaning of cages: twice in a week; acclimatization: the period of acclimatization was a minimum of seven days in the experimental room after the veterinary examination.
Formulation was freshly made just before dosing. For the primer dose of vaccine 3 mg peptide was dissolved in 1 ml of 1×PBS sterile solution to make 3 mg/mL stock solution. 0.4 mL of stock solution was combined with 0.4 mL of complete Freund's adjuvant by vigorous vortexing. For booster doses, the same procedure was followed except that the stock solution was combined with an equal amount of incomplete Freund's adjuvant instead of complete Freund's adjuvant.
Once the drop test was passed (the emulsion drop floated on water intact), the final formulation was administered to rats at 50 μL at each site of injection.
After acclimatization period, body weights of rats were recorded. The rats were randomized based on body weight after quarantine period into two groups n=6 per group as disease control (6M) and treatment group (6M). The disease control and treatment groups were given a high fat diet ad libitum for 8 consecutive weeks while the treatment group received the vaccine doses by intramuscular route as per study design as weekly once dosing for 7 consecutive weeks.
Initial primer dose was given only once during the treatment initiation and the remaining 6 booster doses were administered weekly once to the treatment group animals. Sham group animals received a normal rodent diet fortified with fat. Blood samples were collected on week 0, week 2, week 4, week 6 and week 8 from animals and analyzed for fasting blood glucose, triglycerides, total cholesterol and lipid profile. At every blood collection, 12 hour fasting was maintained for animals. On the final necropsy day, animals were subjected to euthanasia and major organs like liver, heart, lungs, kidneys, testes, spleen, and epididymal fat were collected, weighed and recorded. Half portion of liver was stored immediately in liquid nitrogen and kept at −80° C. for oil red stain and the remaining half was stored in 10% formalin solution, which was taken for histological evaluation by hematoxylin and eosin (H & E) staining.
Blood was centrifuged at 40° C., 4000 RPM for 15 minutes to separate serum and plasma. The serum and plasma samples were analyzed for serum biochemistry and fasting blood glucose respectively. Remaining serum samples were stored at −80° C. until dispatch to the test facility.
General clinical observations were conducted twice daily and detailed clinical observations were conducted once daily.

[1] = Solubility of test item in phosphate buffered saline; type: physicochemical; conditions: in phosphate buffered saline (PBS; 1×)
Excerpt: The dosage for rats extrapolated using standard guidelines.
as §1

[2] = throughout study duration, rats

Row | Substance | abnormalities (clinical observation) (high-fat fed mice model) | adverse clinical signs (high-fat fed mice model) | high fat diet intake (high-fat fed mice model) | water intake (high-fat fed mice model) | critical organ weights (toxicology analysis) (high-fat fed rat model; 8 week study) | hematocrit (toxicology analysis) (high-fat fed rat model; 8 week study) | liver function (AST and ALT) (toxicology analysis) (high-fat fed rat model; 8 week study) | adverse clinical signs (high-fat fed rat model; clinical observations, rats) | hand held observations (high-fat fed rat model; clinical observations, rats) | home cage observations (high-fat fed rat model; clinical observations, rats) | nervous and muscle measurements and other observations (high-fat fed rat model; clinical observations, rats) | open field activity (high-fat fed rat model; [2]) | stimulus response (high-fat fed rat model; [2]) | solubility [1] [%]
1 | MRAPGAGAASVVS [vaccine, MRAPGAGAASVVS] | No abnormalities were observed | No adverse clinical signs were observed | normal | normal | no changes | no changes | improvement | no adverse clinical signs were observed | responded normally | no abnormalities were observed | No abnormalities observed | normal | normal | –
2 | GTX-SP-208: test item of the rat study: peptide, anti-hyperlipidemic agent, powder form, Galore Tx Pharmaceuticals; presumably the FATP1 peptide of the vaccine (MRAPGAGAASVVS) | – | – | – | – | – | – | – | – | – | – | – | – | – | 100
3 | UT-GT-001: test item of the mice study: peptide, anti-hyperlipidemic agent, powder form, Galore Tx Pharmaceuticals; presumably the FATP1 peptide of the vaccine (MRAPGAGAASVVS) | – | – | – | – | – | – | – | – | – | – | – | – | – | 100
